Data: patent publication US9150508B2, “Sulfonamide compounds and their use in the modulation retinoid-related orphan receptor” (Glaxo Group Limited, priority 2011, dated 2015)

Experiments:
[1] = system: IL-17A secreted from antiCD3/CD28 stimulated Peripheral Blood Mononuclear cells (PBMC); assay: Peripheral Blood Mononucleocyte Cell Assay (PBMC Assay-IL-17); assay type: cell-based; conditions: inhibition of IL-17A release, CD3/CD28 bead stimulated human PBMC, 48 hours; read-out: mean pIC50 (converted)
Source text: Peripheral Blood Mononucleocyte Cell Assay (PBMC Assay-IL-17)
RORs (Retinoic Acid Related Orphan Receptors) are members of the class 1 nuclear receptor family. RORs regulate gene transcription by binding to specific DNA response element (RORE) as a monomer and have critical roles of in development, immunity, circadian rhythm, and cellular metabolism (recently reviewed by A Jetten, Nuclear Receptor Signaling, 2009, 7, 1-32) One member of this nuclear receptor family, RORγt, has been identified as a regulator of differentiation and development of IL-17-expressing human and mouse CD4+ T cells, so called Th17 cells which play a role in both host defence and inflammatory disorders. RORγt is also required for transcription of the genes encoding IL-17A and IL-17F in iNKT, NKT (Immunol 2009, 2(5), 383-392, J. Immunol, 2008, 180, 51(67), 5171-5171), γδTcells (J. Resp and Crit. Care Med 2010, 182(4), 464-476), CD8^+ Tcell (J Leukocyte Biol, 2007, 82(2), 354-360) and finally CD4-CD8-TCRαβ^+ T cells (J. Immunol. 2008, 181 8761-8766). Additional immune cells such as eosinophils, neutrophils and macrophages can also be source of IL17A in some allergic inflammation related to asthma (J Allergy Clin Immunol 2001, 108, 430-438; J. Immunol, 2008, 181, 6117-6124; Immunity, 2004, 21, 467-476), however, the link with RORγt has not yet been confirmed in the literature.
This assay is designed to measure levels of IL-17A secreted from antiCD3/CD28 stimulated frozen Peripheral Blood Mononuclear cells (PBMC) isolated from human blood with the aim of identifying inhibitors of IL-17A release.
• 1. Ensure no external endotoxin is present in media and reagents used in the assay. • 2. The compounds for screening are dispensed into a master plate at 10 mM top concentration which are serially diluted 1:3 across 11 points in DMSO, then 500 nl is transferred into a 384-well flat-bottomed Greiner plate to which 50 ul of cell suspension is added: for the single shot screening the highest concentration of compound is 10^−5M; for 11 point full curve dose response studies the highest concentration is […]. • Controls: • As a low control, DMSO (as supplied, for example, by VWR) (final concentration 1%) in column 6 (16 points). • As a high control, 5-(4-fluorophenyl)-2-ureidothiophene-3-carboxamide (obtainable from, for example, Sigma) at a final concentration of 10^−4 M in DMSO should be used in column 18 (16 points). • If the compounds dispensed earlier than the day of the assay, they should be kept at −20° C.
Protocol Step 2: Day 1: Thawing and Handing of PBMC • 1. Thaw PBMC in the vial using water bath (37° C.). […] Transfer the contents of the vial into 50 mL Falcon tube. • 3. Add 10 mL of Assay Media drop by drop to decrease the concentration of DMSO (as supplied, for example, by VWR) in the freezing media gradually. • 4. Spin down the cells in a centrifuge (1000 rpm-5 mins). • 5. Decant the supernatant. • 6. Re-suspend the cells in 10 mL of Assay Media. • 7. Transfer of 0.1 mL of suspension into Cedex counting tube. • 8. Add 0.9 mL of media to achieve volume of the suspension for counting up to 1 mL. Count the cells on Cedex using 1:10 dilution factor settings. • 9. Make the cell suspension at the concentration 8×10^5 cells/mL. to give a final number of 40,000 cells/well. Protocol Step 3: Day 1: Stimulation of PBMC with CD3/CD28 beads • 1. Add well mixed CD3/CD28 Dynabeads (as supplied, for example, by Dynal) to achieve ratio bead:cell=2:1 (i.e a dilution of 1 in 20). Mix thoroughly. • 2. Dispense the suspension into the 384 Assay Plates using Multidrop (50 ul per well). • If the volume of cell suspension is large, mix the suspension after dispensing into every other plate. • 3. Cover the plates with the lids and place them to the humidified incubator (37° C., 5% CO2) for 48 hours. Protocol Step 4: Day 2: MSD plates preparation • 1. […]

[2] = target: T1, Human RORγ Ligand Binding Domain (RORγ-LBD) (Homo sapiens, UniProt P51449); assay: Dual Fluorescence Energy Transfer (FRET) assay: RORγ-LBD / SRC1(2) co-activator peptide interaction; assay type: biochemical; conditions: RORγ-LBD/SRC1(2) peptide interaction, read-out: mean pIC50 (converted)
T1 construct: His6 plus thrombin site) (N); made in house; host or cells: E. coli BL21(DE3), modified pET21a
T1 sequence (P51449 263-518): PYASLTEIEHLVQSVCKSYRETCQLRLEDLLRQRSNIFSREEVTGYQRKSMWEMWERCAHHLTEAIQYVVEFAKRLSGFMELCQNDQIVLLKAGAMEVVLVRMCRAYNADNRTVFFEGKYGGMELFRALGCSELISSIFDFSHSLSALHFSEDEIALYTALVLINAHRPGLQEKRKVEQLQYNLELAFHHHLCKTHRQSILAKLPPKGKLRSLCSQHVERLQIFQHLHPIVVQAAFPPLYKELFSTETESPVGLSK
Source text: Dual Fluorescence Energy Transfer (FRET) Assay
This assay is based on the knowledge that nuclear receptors interact with cofactors (transcription factors) in a ligand dependent manner. RORγ is a typical nuclear receptor in that it has an AF2 domain in the ligand binding domain (LBD) which interacts with co-activators. The sites of interaction have been mapped to the LXXLL (SEQ ID NO:1) motifs in the co-activator SRC1(2) sequences. Short peptide sequences containing the LXXLL (SEQ ID NO:1) motif mimic the behavior of full-length co-activator.
This assay measures ligand-mediated interaction of the co-activator peptide with the purified bacterial-expressed RORγ ligand binding domain (RORγ-LBD) to indirectly assess ligand binding. RORγ has a basal level of interaction with the co-activator SRC1(2) in the absence of ligand, Thus, it is possible to find ligands that inhibit or enhance the RORγ/SRC1(2) interaction.
Human RORγ Ligand Binding Domain (RORγ-LBD) was expressed in E. coli strain BL21(DE3) as an amino-terminal polyhistidine tagged fusion protein. DNA encoding this recombinant protein was sub-cloned into a modified pET21a expression vector (Novagen). A modified polyhistidine tag (MKKHHHHHHLVPRGS) (SEQ ID NO:2)was fused in frame to residues 263-518 of the human RORγ sequence.
Approximately 50 g E. coli cell pellet was resuspended in 300 mL of lysis buffer (30 mM imidazole pH 7.0 and 150 mM NaCl). Cells were lysed by sonication and cell debris was removed by centrifugation for 30 minutes at 20,000 g at 4° C. The cleared supernatant was filtered through a 0.45 uM cellulose acetate membrane filter. The clarified lysate was loaded onto a column (XK-26) packed with ProBond Nickel Chelating resin (InVitrogen), pre-equilibrated with 30 mM imidazole pH 7.0 and 150 mM NaCl. After washing to baseline absorbance with the equilibration buffer, the column was developed with a gradient from 30 to 500 mM imidazole pH 7.0. Column fractions containing the RORγ-LBD protein were pooled and concentrated to a volume of 5 mLs. The concentrated protein was loaded onto a Superdex 200 column pre-equilibrated with 20 mM Tris-Cl pH 7.2 and 200 mM NaCl. The fractions containing the desired RORγ-LBD protein were pooled together.
Purified RORγ-LBD was buffer exchanged by exhaustive dialysis [3 changes of at least 20 volumes (>8000×)] against PBS [100 mM NaPhosphate, pH 8 and 150 mM NaCl]. The concentration of RORγ-LBD was approximately 30 uM in PBS. Five-fold molar excess of NHS-LC-Biotin (Pierce) was added in a minimal volume of PBS. This solution was incubated with occasional gentle mixing for 60 minutes at ambient room temperature. The modified RORγ-LBD was dialyzed against 2 buffer changes—TBS pH 8.0 containing 5 mM DTT, 2 mM EDTA and 2% sucrose—each at least 20 times of the volume. The modified protein was distributed into aliquots, frozen on dry ice and stored at −80° C. The biotinylated RORγ-LBD was subjected to mass spectrometric analysis to reveal the extent of modification by the biotinylation reagent. In general, approximately 95% of the protein had at least a single site of biotinylation and the overall extent of biotinylation followed a normal distribution of multiple sites ranged from one to five.
A biotinylated peptide corresponding to amino acid 676 to 700 ([…]) (SEQ ID NO:3)of the co-activator steroid receptor coactivator SRC1(2) was generated using similar method.
Biotinylated SRC1(2) solution was prepared by adding an appropriate amount of biotinylated SRC1(2) from the 100 uM stock solution to a buffer containing 10 mM of freshly added DTT from solid to give a final concentration of 40 nM. An appropriate amount of Europium labeled Streptavidin was then added to the biotinylated SRC1(2) solution in a tube to give a final concentration of 10 nM. The tube was inverted gently and incubated for 15 minutes at room temperature. […]

SMILES | IC50 [1] [nM] | IC50 [2] [nM]
CCCCc1ccc(N(CC(C)C)S(=O)(=O)c2ccc(OCc3c(C)noc3C)cc2)c(C)c1 [Product P23] | ≤ 1000 | 
Cc1ccc(N(CC(C)C)S(=O)(=O)c2ccc(OCc3c(C)noc3C)cc2)c(C)c1 [Product P24] | ≤ 1000 | ≤ 15.8
Cc1noc(C)c1COc1ccc(S(=O)(=O)N(CC(C)C)c2ccc(C(C)C)cc2)cc1 [Product P28] | ≤ 1000 | ≤ 15.8
Cc1noc(C)c1COc1ccc(S(=O)(=O)N(CC(C)C)c2ccc(Cl)cc2)cc1 [Product P30] | ≤ 1000 | ≤ 15.8
CCCc1ccc(N(CC(C)C)S(=O)(=O)c2ccc(OCc3c(C)noc3C)cc2)cc1 [Product P31] | ≤ 1000 | ≤ 15.8
Cc1ccc(C(F)(F)F)cc1N(CC(C)C)S(=O)(=O)c1ccc(OCc2c(C)noc2C)cc1 [Product P33] | ≤ 1000 | ≤ 15.8
Cc1ccc(C)c(N(CC(C)C)S(=O)(=O)c2ccc(OCc3c(C)noc3C)cc2)c1 [Product P37] | ≤ 1000 | 
Cc1ccc(N(CC(C)C)S(=O)(=O)c2ccc(OCc3ccncc3)cc2)c(C)c1 [Product P98] |  | ≤ 15.8
Cc1ccc(F)cc1N(CC(C)C)S(=O)(=O)c1ccc(OCc2ccncc2)cc1 [Product P104] |  | ≤ 15.8
Cc1noc(C)c1COc1ccc(S(=O)(=O)N(CC(C)C)c2ccc(Cl)c(Cl)c2)cc1 [Product P114] |  | ≤ 15.8
Cc1cc(C)cc(N(CC(C)C)S(=O)(=O)c2ccc(OCc3c(C)noc3C)cc2)c1 [Product P118] | ≤ 1000 | 
Cc1ccc(N(CC(C)C)S(=O)(=O)c2ccc(OCc3ccncc3)cc2)c(C)c1 [Product P123] | ≤ 1000 | 
Cc1ccc(N(CC(C)C)S(=O)(=O)c2ccc(COCc3ccncc3)cc2)c(C)c1 [Product P128] | ≤ 1000 | 
Cc1ccc(N(CC(C)C)S(=O)(=O)c2ccc(OCc3ncn(C)n3)cc2)c(C)c1 [Product P132] | ≤ 1000 | 
Cc1ccccc1N(CC(C)C)S(=O)(=O)c1ccc(OCc2c(C)noc2C)cc1 [Product P137] | ≤ 1000 | 
Cc1ccc(N(CC(C)C)S(=O)(=O)c2ccc(CCc3ccncc3)cc2)c(C)c1 [Product P140] | ≤ 1000 | ≤ 15.8
Cc1ccc(N(CC(C)C)S(=O)(=O)c2ccc(OCCc3ccncc3)cc2)c(C)c1 [Product P141] |  | ≤ 15.8
Cc1ccc(N(CC(C)C)S(=O)(=O)c2ccc(OCCc3c(C)noc3C)cc2)c(C)c1 [Product P142] |  | ≤ 15.8
Cc1ccc(N(CC(C)C)S(=O)(=O)c2ccc(OCc3ccncn3)cc2)c(C)c1 [Product P143] | ≤ 1000 | 
Cc1cc(Br)ccc1N(CC(C)C)S(=O)(=O)c1ccc(OCc2c(C)noc2C)cc1 [Product P144] | ≤ 1000 | 
Cc1ccc(N(CC(C)C)S(=O)(=O)c2ccc(OCc3ncnn3C)cc2)c(C)c1 [Product P147] | ≤ 1000 | 
Cc1ccc(N(CC(C)C)S(=O)(=O)c2ccc(OCC(O)c3ccncc3)cc2)c(C)c1 (centres unmarked) [Product P150, N-(2,4-dimethylphenyl)-4-(2-hydroxy-2-(pyridin-4-yl)ethoxy)-N-isobutylbenzenesulfonamide] |  | ≤ 15.8
Cc1cc(C(C)(C)O)ccc1N(CC(C)C)S(=O)(=O)c1ccc(OCc2c(C)noc2C)cc1 [Product P155, 4-((3,5-dimethylisoxazol-4-yl)methoxy)-N-(4-(2-hydroxypropan-2-yl)-2-methylphenyl)-N-isobutylbenzenesulfonamide] | ≤ 1000 | 
CCc1ccc(N(CC(C)C)S(=O)(=O)c2ccc(OCc3c(C)noc3C)cc2)cc1 [Product P160, 4-((3,5-dimethylisoxazol-4-yl)methoxy)-N-(4-ethylphenyl)-N-isobutylbenzenesulfonamide] | ≤ 1000 | ≤ 15.8
Cc1ccc(N(CC(C)C)S(=O)(=O)c2ccc(C(=O)O)cc2)c(C)c1 [Product P179, 4-(N-(2,4-dimethylphenyl)-N-isobutylsulfamoyl)benzoic acid] | > 100000 | 
